The term IC50 denotes the concentration needed to halve the response being measured.

From patent publication US9249129B2, “Morpholino substituted urea derivatives as mTOR inhibitors” (CELLZOME LIMITED, priority 2010, dated 2016) come the findings set out here.

Where two headings read alike, the source gives them in different places.

The target of one assay is T1, mTOR (Homo sapiens, UniProt P42345).
T1 construct: endogenous in cells; host or cells: Jurkat cells (ATCC TIB-152, clone E6-1), lysate
Kind of assay: mTOR kinobeads assay (dot blot detection). Format: binding. The method, boiled down:
(§1)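 Jurkat cell lysate (5 mg/mL protein) incubated 2 h in the cold with test compound (9-step 1:3 series) and immobilized phenylthiazole/phenylmorpholin-chromen ligand beads. Bead-bound kinases eluted, detected by specific antibody dot blot with infrared readout; IC50 from dose-response curves.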

In assay [1] the target is T2, DNA-dependent protein kinase (DNA-PK) (Homo sapiens, UniProt P78527).
T2 construct: endogenous in cells; host or cells: Jurkat cells (ATCC TIB-152, clone E6-1), lysate
T2 sequence (P78527 whole entry): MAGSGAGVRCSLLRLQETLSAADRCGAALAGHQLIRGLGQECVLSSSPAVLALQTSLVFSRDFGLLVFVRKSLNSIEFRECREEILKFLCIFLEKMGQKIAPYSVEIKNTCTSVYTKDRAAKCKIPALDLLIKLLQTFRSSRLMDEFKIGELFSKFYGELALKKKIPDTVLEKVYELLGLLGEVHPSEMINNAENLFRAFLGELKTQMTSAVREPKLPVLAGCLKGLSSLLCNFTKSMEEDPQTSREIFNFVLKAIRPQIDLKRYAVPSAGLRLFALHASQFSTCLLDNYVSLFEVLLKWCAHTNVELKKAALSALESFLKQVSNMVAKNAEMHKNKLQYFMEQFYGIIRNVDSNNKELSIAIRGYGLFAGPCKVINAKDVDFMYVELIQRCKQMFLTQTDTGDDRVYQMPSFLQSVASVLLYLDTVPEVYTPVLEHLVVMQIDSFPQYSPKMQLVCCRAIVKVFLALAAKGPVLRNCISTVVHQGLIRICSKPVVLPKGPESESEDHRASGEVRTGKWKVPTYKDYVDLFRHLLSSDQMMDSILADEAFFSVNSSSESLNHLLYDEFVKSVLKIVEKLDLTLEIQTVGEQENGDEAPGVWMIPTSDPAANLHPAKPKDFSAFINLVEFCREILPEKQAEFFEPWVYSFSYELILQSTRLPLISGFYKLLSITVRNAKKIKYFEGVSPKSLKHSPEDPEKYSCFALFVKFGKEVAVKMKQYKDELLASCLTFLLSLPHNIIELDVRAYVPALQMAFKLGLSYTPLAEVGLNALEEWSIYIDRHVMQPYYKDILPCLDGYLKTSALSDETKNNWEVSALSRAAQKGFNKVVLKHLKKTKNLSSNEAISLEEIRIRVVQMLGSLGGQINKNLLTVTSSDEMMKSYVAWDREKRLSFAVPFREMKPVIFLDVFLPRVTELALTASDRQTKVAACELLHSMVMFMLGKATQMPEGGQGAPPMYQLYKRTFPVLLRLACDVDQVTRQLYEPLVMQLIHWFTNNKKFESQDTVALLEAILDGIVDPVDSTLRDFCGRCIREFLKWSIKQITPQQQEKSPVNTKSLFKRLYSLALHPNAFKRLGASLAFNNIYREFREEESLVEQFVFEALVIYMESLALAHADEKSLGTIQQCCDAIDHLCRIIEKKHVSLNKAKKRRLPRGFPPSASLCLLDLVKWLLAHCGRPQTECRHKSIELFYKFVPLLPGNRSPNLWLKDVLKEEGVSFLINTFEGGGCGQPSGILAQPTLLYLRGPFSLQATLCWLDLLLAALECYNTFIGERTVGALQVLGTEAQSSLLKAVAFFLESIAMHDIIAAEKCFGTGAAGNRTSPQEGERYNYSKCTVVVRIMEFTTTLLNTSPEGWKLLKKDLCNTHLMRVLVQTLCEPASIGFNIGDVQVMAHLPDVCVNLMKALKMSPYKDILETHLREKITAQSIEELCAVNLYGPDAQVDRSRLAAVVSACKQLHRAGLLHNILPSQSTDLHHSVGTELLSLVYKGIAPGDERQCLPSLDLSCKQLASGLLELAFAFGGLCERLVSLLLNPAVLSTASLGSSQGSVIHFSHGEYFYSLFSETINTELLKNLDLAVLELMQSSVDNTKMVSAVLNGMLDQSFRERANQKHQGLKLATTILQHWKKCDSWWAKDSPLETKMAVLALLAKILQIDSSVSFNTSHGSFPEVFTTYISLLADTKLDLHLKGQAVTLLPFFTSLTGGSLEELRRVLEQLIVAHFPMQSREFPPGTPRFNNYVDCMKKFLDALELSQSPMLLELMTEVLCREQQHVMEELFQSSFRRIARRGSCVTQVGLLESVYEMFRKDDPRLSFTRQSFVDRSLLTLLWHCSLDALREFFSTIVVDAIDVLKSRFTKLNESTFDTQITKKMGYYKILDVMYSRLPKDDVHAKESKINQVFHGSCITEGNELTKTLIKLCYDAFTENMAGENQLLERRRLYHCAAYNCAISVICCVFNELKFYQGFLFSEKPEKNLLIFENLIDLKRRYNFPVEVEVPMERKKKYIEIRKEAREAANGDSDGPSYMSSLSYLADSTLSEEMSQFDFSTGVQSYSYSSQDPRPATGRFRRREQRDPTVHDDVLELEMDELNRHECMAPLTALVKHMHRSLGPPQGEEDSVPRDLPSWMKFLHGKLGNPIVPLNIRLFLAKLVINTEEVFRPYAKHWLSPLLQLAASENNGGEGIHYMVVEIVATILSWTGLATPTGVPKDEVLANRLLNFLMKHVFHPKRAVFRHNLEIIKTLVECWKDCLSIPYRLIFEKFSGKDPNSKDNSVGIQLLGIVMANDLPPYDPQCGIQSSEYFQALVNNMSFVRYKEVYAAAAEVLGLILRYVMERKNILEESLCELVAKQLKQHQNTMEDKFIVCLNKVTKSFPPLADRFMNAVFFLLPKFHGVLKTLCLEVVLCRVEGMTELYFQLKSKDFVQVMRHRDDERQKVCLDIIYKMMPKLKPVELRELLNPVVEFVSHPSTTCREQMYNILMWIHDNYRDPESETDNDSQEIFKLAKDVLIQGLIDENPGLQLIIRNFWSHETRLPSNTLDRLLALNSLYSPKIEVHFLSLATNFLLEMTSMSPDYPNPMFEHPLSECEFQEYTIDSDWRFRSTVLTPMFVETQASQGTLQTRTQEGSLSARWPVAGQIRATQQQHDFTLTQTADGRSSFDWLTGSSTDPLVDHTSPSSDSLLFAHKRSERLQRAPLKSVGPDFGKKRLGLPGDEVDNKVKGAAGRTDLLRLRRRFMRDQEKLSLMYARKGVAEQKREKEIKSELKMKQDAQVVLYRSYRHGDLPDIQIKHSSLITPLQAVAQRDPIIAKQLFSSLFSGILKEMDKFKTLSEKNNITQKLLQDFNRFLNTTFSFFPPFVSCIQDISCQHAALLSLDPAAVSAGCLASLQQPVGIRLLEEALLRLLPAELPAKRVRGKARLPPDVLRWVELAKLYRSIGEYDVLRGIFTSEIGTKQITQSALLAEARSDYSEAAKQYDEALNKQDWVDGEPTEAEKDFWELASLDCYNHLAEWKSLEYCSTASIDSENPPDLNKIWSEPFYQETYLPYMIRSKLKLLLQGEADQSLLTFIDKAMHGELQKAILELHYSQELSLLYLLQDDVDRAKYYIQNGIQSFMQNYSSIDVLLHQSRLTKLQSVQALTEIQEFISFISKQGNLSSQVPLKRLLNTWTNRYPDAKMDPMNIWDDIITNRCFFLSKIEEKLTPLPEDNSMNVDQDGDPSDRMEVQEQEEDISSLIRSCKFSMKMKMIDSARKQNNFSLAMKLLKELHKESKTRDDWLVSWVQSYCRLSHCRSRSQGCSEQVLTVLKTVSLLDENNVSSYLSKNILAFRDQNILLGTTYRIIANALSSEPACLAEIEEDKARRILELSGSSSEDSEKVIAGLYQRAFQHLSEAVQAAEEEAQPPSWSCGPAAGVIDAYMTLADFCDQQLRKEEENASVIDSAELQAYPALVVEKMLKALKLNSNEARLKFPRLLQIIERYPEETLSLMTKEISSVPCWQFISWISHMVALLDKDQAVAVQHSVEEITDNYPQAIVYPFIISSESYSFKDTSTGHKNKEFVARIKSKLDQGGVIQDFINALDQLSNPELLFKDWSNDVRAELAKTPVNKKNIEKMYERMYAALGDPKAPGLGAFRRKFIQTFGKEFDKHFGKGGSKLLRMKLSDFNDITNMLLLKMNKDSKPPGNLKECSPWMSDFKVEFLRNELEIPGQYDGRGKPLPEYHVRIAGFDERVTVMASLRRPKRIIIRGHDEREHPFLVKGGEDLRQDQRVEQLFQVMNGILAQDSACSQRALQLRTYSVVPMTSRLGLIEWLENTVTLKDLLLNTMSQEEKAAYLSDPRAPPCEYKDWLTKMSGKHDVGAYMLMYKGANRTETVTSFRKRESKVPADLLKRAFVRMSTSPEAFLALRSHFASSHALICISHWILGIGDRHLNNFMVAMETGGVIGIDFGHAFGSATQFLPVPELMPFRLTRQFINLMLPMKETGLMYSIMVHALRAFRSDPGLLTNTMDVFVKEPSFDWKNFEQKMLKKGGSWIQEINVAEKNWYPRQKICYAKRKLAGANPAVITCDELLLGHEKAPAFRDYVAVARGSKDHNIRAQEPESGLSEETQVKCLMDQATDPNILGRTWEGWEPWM
Put plainly: kinobeads assay, DNA-PK (dot blot detection). Format: binding. The method, boiled down:
as §1

The mark [2] stands for this setting: Table 2, Jurkat cell lysate, read-out: Inhibition values (IC50) mTor.
[3] abbreviates: Table 4, read-out: Inhibition values (IC50) mTOR.
[4] abbreviates: Table 2, Jurkat cell lysate, read-out: Inhibition values (IC50) DNAPK.
[5] abbreviates: Table 4, read-out: Inhibition values (IC50) DNAPK.

For the molecule `C[C@H]1COCCN1c1nc(-c2ccc(NC(=O)NCCCO)cc2)cc(-c2cc(F)ccc2S(C)(=O)=O)n1` [Example 64, (S)-1-(4-(6-(5-fluoro-2-(methylsulfonyl)phenyl)-2-(3-methylmorpholino)pyrimidin-4-yl)phenyl)-3-(3-hydroxypropyl)urea], the 50% inhibitory concentration (IC50) at mTOR (setting [2]) was 100 to 1000 nM; on mTOR (setting [3]), 100 to 1000 nM; in assay [1] (setting [4]), no less than 10000 nM; in assay [1] (setting [5]), no less than 10000 nM.
For the molecule `C[C@H]1COCCN1c1nc(-c2ccc(NC(=O)NC3CC3)cc2)cc(-c2cccnc2S(C)(=O)=O)n1` [Example 46, (S)-1-cyclopropyl-3-(4-(2-(3-methylmorpholino)-6-(2-(methylsulfonyl)pyridin-3-yl)pyrimidin-4-yl)phenyl)urea], the IC50 was 100 to 1000 nM at mTOR (setting [2]), 100 to 1000 nM at mTOR (setting [3]), no less than 10000 nM in assay [1] (setting [4]) and no less than 10000 nM in assay [1] (setting [5]).
Take `CS(=O)(=O)c1ccc(F)cc1-c1cc(-c2ccc(NC(=O)NCCO)cc2)nc(N2CCOCC2)n1` [Example 62, 1-(4-(6-(5-fluoro-2-(methylsulfonyl)phenyl)-2-morpholinopyrimidin-4-yl)phenyl)-3-(2-hydroxyethyl)urea]: the IC50 on mTOR (setting [2]) was 100 to 1000 nM; at mTOR (setting [3]), 100 to 1000 nM; in assay [1] (setting [4]), no less than 10000 nM; in assay [1] (setting [5]), no less than 10000 nM.
Take `C[C@H]1COCCN1c1nc(-c2ccc(NC(=O)NC3CC3)cc2)cc(-c2ccccc2S(C)(=O)=O)n1` [Example 4, (S)-1-cyclopropyl-3-(4-(2-(3-methylmorpholino)-6-(2-(methylsulfonyl)phenyl)pyrimidin-4-yl)phenyl)urea]: the IC50 was 100 to 1000 nM at mTOR (setting [2]), 100 to 1000 nM on mTOR (setting [3]), no less than 10000 nM in assay [1] (setting [4]) and no less than 10000 nM in assay [1] (setting [5]).
Turning to `C[C@H]1COCCN1c1cc(-c2ccc(F)nc2)nc(-c2ccc(NC(=O)NC3CC3)cc2)n1` [Example 21, (S)-1-cyclopropyl-3-(4-(4-(6-fluoropyridin-3-yl)-6-(3-methylmorpholino)pyrimidin-2-yl)phenyl)urea], the IC50 at mTOR (setting [2]) is 100 to 1000 nM; on mTOR (setting [3]), 100 to 1000 nM; in assay [1] (setting [4]), no less than 10000 nM; in assay [1] (setting [5]), no less than 10000 nM.
Regarding `C[C@H]1COCCN1c1nc(-c2ccc(NC(=O)N[C@H]3CCC[C@@H]3O)cc2)cc(-c2cc(F)ccc2S(C)(=O)=O)n1` [Example 76, 1-(4-(6-(5-fluoro-2-(methylsulfonyl)phenyl)-2-((S)-3-methylmorpholino)pyrimidin-4-yl)phenyl)-3-((1S,2S)-2-hydroxycyclopentyl)urea], the half-inhibitory concentration (IC50) was 100 to 1000 nM at mTOR (setting [3]) and no less than 10000 nM in assay [1] (setting [5]).
Take `CCNC(=O)Nc1ccc(-c2cc(-c3ccccc3C#N)nc(N3CCOC[C@@H]3C)n2)cc1` [Example 8, (S)-1-(4-(6-(2-cyanophenyl)-2-(3-methylmorpholino)pyrimidin-4-yl)phenyl)-3-ethylurea]: the IC50 on mTOR (setting [2]) was 1000 to 10000 nM; on mTOR (setting [3]), 1000 to 10000 nM; in assay [1] (setting [4]) it was no less than 10000 nM; in assay [1] (setting [5]), no less than 10000 nM.
With `C[C@H]1COCCN1c1nc(-c2ccc(NC(=O)NCCO)cc2)cc(-c2cc(F)ccc2S(C)(=O)=O)n1` [Example 41, (S)-1-(4-(6-(5-fluoro-2-(methylsulfonyl)phenyl)-2-(3-methylmorpholino)pyrimidin-4-yl)phenyl)-3-(2-hydroxyethyl)urea], the IC50 on mTOR (setting [2]) was less than 100 nM; on mTOR (setting [3]) it was less than 100 nM; in assay [1] (setting [4]), no less than 10000 nM; in assay [1] (setting [5]), no less than 10000 nM.
For the molecule `C[C@H]1COCCN1c1cc(-c2cncc(F)c2)nc(-c2ccc(NC(=O)NC3CC3)cc2)n1` [Example 23, (S)-1-cyclopropyl-3-(4-(4-(5-fluoropyridin-3-yl)-6-(3-methylmorpholino)pyrimidin-2-yl)phenyl)urea], the IC50 was 100 to 1000 nM on mTOR (setting [2]), 100 to 1000 nM on mTOR (setting [3]), no less than 10000 nM in assay [1] (setting [4]) and no less than 10000 nM in assay [1] (setting [5]).
As for `C[C@H]1COCCN1c1nc(-c2ccc(NC(=O)NCCF)cc2)cc(-c2cc(F)ccc2S(C)(=O)=O)n1` [Example 44, (S)-1-(4-(6-(5-fluoro-2-(methylsulfonyl)phenyl)-2-(3-methylmorpholino)pyrimidin-4-yl)phenyl)-3-(2-fluoroethyl)urea], the IC50 at mTOR (setting [2]) was 100 to 1000 nM; at mTOR (setting [3]), 100 to 1000 nM; in assay [1] (setting [4]) it was no less than 10000 nM; in assay [1] (setting [5]), no less than 10000 nM.
For the molecule `C[C@H]1COCCN1c1cc(-c2ccccc2S(C)(=O)=O)nc(-c2ccc(NC(=O)NC3CC3)cc2)n1` [Example 6, (S)-1-cyclopropyl-3-(4-(4-(3-methylmorpholino)-6-(2-(methylsulfonyl)phenyl)pyrimidin-2-yl)phenyl)urea], the IC50 was 100 to 1000 nM at mTOR (setting [2]), 100 to 1000 nM on mTOR (setting [3]), no less than 10000 nM in assay [1] (setting [4]) and no less than 10000 nM in assay [1] (setting [5]).
Consider `O=C(Nc1ccncc1)Nc1ccc(-c2nccc(N3CC4CCC(C3)O4)n2)cc1` [Example 61, 1-(4-(4-(8-oxa-3-azabicyclo[3.2.1]octan-3-yl)pyrimidin-2-yl)phenyl)-3-(pyridin-4-yl)urea], for which the IC50 is 100 to 1000 nM at mTOR (setting [2]), 100 to 1000 nM at mTOR (setting [3]), no less than 10000 nM in assay [1] (setting [4]) and 1000 to 10000 nM in assay [1] (setting [5]).
On to `CCNC(=O)Nc1ccc(-c2cc(-c3cc(F)ccc3S(C)(=O)=O)nc(N3CCOC[C@@H]3C)n2)cc1` [Example 2, (S)-1-ethyl-3-(4-(6-(5-fluoro-2-(methylsulfonyl)phenyl)-2-(3-methylmorpholino)pyrimidin-4-yl)phenyl)urea], for which the IC50 at mTOR (setting [2]) is 100 to 1000 nM; on mTOR (setting [3]), 100 to 1000 nM; in assay [1] (setting [4]) it was no less than 10000 nM; in assay [1] (setting [5]), no less than 10000 nM.
Turning to `C[C@H]1COCCN1c1ccnc(-c2ccc(NC(=O)Nc3ccncc3)cc2)n1` [Example 60, (S)-1-(4-(4-(3-methylmorpholino)pyrimidin-2-yl)phenyl)-3-(pyridin-4-yl)urea], the IC50 on mTOR (setting [2]) was 100 to 1000 nM; on mTOR (setting [3]), 100 to 1000 nM; in assay [1] (setting [4]), no less than 10000 nM; in assay [1] (setting [5]), no less than 10000 nM.
Regarding `C[C@H]1COCCN1c1cc(-c2ccccn2)nc(-c2ccc(NC(=O)NC3CC3)cc2)n1` [Example 42, (S)-1-cyclopropyl-3-(4-(4-(3-methylmorpholino)-6-(pyridin-2-yl)pyrimidin-2-yl)phenyl)urea], the IC50 on mTOR (setting [2]) is 100 to 1000 nM; on mTOR (setting [3]), 100 to 1000 nM; in assay [1] (setting [4]) it was no less than 10000 nM; in assay [1] (setting [5]), no less than 10000 nM.
Turning to `C[C@H]1COCCN1c1nc(-c2ccc(NC(=O)NCC(F)F)cc2)cc(-c2cc(F)ccc2S(C)(=O)=O)n1` [Example 47, (S)-1-(2,2-difluoroethyl)-3-(4-(6-(5-fluoro-2-(methylsulfonyl)phenyl)-2-(3-methylmorpholino)pyrimidin-4-yl)phenyl)urea], the IC50 was 100 to 1000 nM on mTOR (setting [2]), 100 to 1000 nM on mTOR (setting [3]), no less than 10000 nM in assay [1] (setting [4]) and no less than 10000 nM in assay [1] (setting [5]).
`C[C@H]1COCCN1c1cc(-c2ccccn2)nc(-c2ccc(NC(=O)NCCO)cc2)n1` [Example 43, (S)-1-(2-hydroxyethyl)-3-(4-(4-(3-methylmorpholino)-6-(pyridin-2-yl)pyrimidin-2-yl)phenyl)urea]: the IC50 at mTOR (setting [2]) is 100 to 1000 nM; at mTOR (setting [3]), 100 to 1000 nM; in assay [1] (setting [4]), no less than 10000 nM; in assay [1] (setting [5]), no less than 10000 nM.
For `C[C@H]1COCCN1c1nc(-c2ccc(NC(=O)NC3CC3)cc2)cc(-c2cc(F)ccc2S(C)(=O)=O)n1` [Example 40, (S)-1-cyclopropyl-3-(4-(6-(5-fluoro-2-(methylsulfonyl)phenyl)-2-(3-methylmorpholino)pyrimidin-4-yl)phenyl)urea], the IC50 at mTOR (setting [2]) was 100 to 1000 nM; at mTOR (setting [3]), 100 to 1000 nM; in assay [1] (setting [4]) it was no less than 10000 nM; in assay [1] (setting [5]), no less than 10000 nM.
